Results from PMC5412686 (Biopharmaceutics & Drug Disposition, 2017).
≈ marks a conversion by molar mass, not a printed value. Like-named read-outs stand apart in the source and are kept apart here.

Assays:
[1] = Humans, fraction unbound in plasma; ref Supplemental Table S1; cited from earlier work
[2] = ref Supplemental Table S1, cited from earlier work; for HBD: number of hydrogen bond donors; for log D: octanol/water at pH 7.4; for PSA: polar surface area
[3] = Solubility in fasted state simulated intestinal fluid; assay type: physicochemical; conditions: FaSSIF, 37 °C, pH 6.5, fassif, thermodynamic from solid
[4] = Humans, cited from earlier work; for Urinary excretion (f e): excreted unchanged in urine, ref Supplemental Table S1; for CL: i.v.; for CL / F / Vss: ref Supplemental Table S2; for F: oral bioavailability
[5] = Rats, fraction unbound; ref Supplemental Table S1; cited from earlier work
[6] = system: Caco‐2 cells (TC7 clone); conditions: Equation 11 from measured P‐Caco2
[7] = human, Caco-2, pH 7.4, with cyclosporine A 10 μM
[8] = Intrinsic metabolic clearance determined in human liver microsomes; assay type: in vitro ADME; conditions: pH 7.4
[9] = cited from earlier work
[10] = Humans, blood/plasma ratio; ref Supplemental Table S1; cited from earlier work
[11] = no medium marked (buffer pH 7.4); ref Supplemental Table S1; cited from earlier work
[12] = Rat i.v. and oral pharmacokinetics from literature; assay type: in vivo, rats; conditions: liver blood flow 80 ml/min/kg
[13] = Rats, blood/plasma ratio; ref Supplemental Table S1; cited from earlier work
[14] = Rats, i.v., ref Supplemental Table S2

Row | Compound | f up [1] | HBD [2] | log D [2] | PSA [2] | solubility at 24 h [3] | Urinary excretion (f e) [4] | CL [4] | f up [5] | Calculated P eff from P‐Caco2 [6] | Papp at 2 h, 1 μM [7] | microsomal CLint at 1 μM [8] | F ([9]; rat, in vivo, po) | Base pKa [2] | F [4] | Vss [4] | CL [9, 14] | R b [10] | Solubility (Biorelevant media or Buffer, pH 7.4) [11] | Rat blood clearance compared with liver blood flow [12] | R b [13] | other results
1 | CN1CCN(C2=Nc3cc(Cl)ccc3Nc3ccccc32)CC1 [Clozapine] | 0.06 | 1 | 2.99 | 25.6 | 350 µg/mL (≈ 1070 µM) | < 1 % of dose | 13.02 L/h | 0.1 | 3.7 10^−4 cm/s | 28.4 ×10⁻⁶ cm/s |  |  |  |  |  |  |  |  |  |  | 
2 | CN(C)CCCN1c2ccccc2Sc2ccc(Cl)cc21 [Chlorpromazine] | 0.06 | 0 | 2.82 | 1.8 | 814 µg/mL (≈ 2550 µM) |  | 76.6 L/h | 0.01 |  |  | 47 µL/min/mg | 0.02 | 9.7 | 0.31 | 8.88 L/kg |  |  |  |  |  | CL ([9]; rat, in vivo, iv): 52 mL/min/kg
3 | CCOC(=O)c1ncn2c1CN(C)C(=O)c1cc(F)ccc1-2 [Flumazenil] |  | 0 | 0.87 | 57.0 |  | 0.5 % of dose | 72.06 L/h | 0.14 |  |  | 39 µL/min/mg | 0.28 |  |  | 0.97 L/kg | 147 mL/min/kg | 1 | 0.13 mg/ml | exceeding maximum liver blood flow value |  | 
4 | COC(=O)C1=C(C)NC(C)=C(C(=O)OCCN(C)Cc2ccccc2)C1c1cccc([N+](=O)[O-])c1 (centres unmarked) [Nicardipine] |  | 1 |  | 114.0 | 227 µg/mL (≈ 473 µM) |  |  | 0.01 |  |  |  | 0.22 | 7.3 |  |  |  |  |  |  |  | 
5 | CCOC(=O)C1=C(C)NC(C)=C(C(=O)OC)C1c1cccc(Cl)c1Cl (centres unmarked) [Felodipine] |  | 1 | 4.76 | 68.7 | 40 µg/mL (≈ 104 µM) | < 1 % of dose |  | 0.001 |  |  |  | 0.1 |  | 0.25 |  |  | 0.7 |  |  | 0.68 | Acid pKa [2]: 5.1
6 | Cc1ccc(O)c([C@H](CCN(C(C)C)C(C)C)c2ccccc2)c1 [Tolterodine] |  | 1 | 2.38 | 24.1 |  |  | 27.72 L/h |  | 3.6 10^−4 cm/s | 26.2 ×10⁻⁶ cm/s | 115 µL/min/mg | 0.02 |  | 0.72 | 1.4 L/kg | 166.7 mL/min/kg |  | 12 mg/ml | exceeding maximum liver blood flow value |  | 
7 | Cc1nnc2n1-c1ccc(Cl)cc1C(c1ccccc1)=NC2 [Alprazolam] |  | 0 |  | 33.3 |  | 20 % of dose | 3.11 L/h | 0.35 | 4.3 10^−4 cm/s | 38.6 ×10⁻⁶ cm/s | < 10 µL/min/mg |  |  | 0.96 |  | 133 mL/min/kg | 0.78 | 40 mg/ml | exceeding maximum liver blood flow value | 0.81 | F ([9]; Rats, oral bioavailability, ref Supplemental Table S2): 0.28
8 | CC(C)(C)NC(=O)[C@@H]1C[C@@H]2CCCC[C@@H]2CN1C[C@@H](O)[C@H](Cc1ccccc1)NC(=O)[C@H](CC(N)=O)NC(=O)c1ccc2ccccc2n1 [Saquinavir] | 0.03 | 5 | 5.05 | 178.8 |  |  |  | 0.05 | 1.6 10^−4 cm/s | 5 ×10⁻⁶ cm/s |  | 0.07 | 7.7 |  |  |  |  | 2.22 mg/ml |  |  | CL ([9]; rat, in vivo, iv): 88.5 mL/min/kg
9 | CCOC(=O)C1=C(C)NC(C)=C(C(=O)OC)C1c1cccc([N+](=O)[O-])c1 (centres unmarked) [Nitrendipine] |  | 1 | 3.81 | 112.9 | 8 µg/mL (≈ 22.2 µM) | < 1 % of dose | 78.89 L/h |  |  |  |  | 0.12 |  | 0.39 | 5.39 L/kg | 16.5 mL/min/kg | 1.46 |  |  | 1.46 | 
